“And” between values parts separate entries of the source, which are not always exact repeats. Equal values may be shown once.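 Step 1: Grow cells in 96-well plates. Step 2: Expose to compound for 48 hours at 5 concentrations. Step 3: Interpolate endpoints linearly; if unreached, use highest concentration. GI50 = concentration required for 50% inhibition of growth. At the TGI there is no net growth.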 Where a SMILES comes first, the peptide text is derived from it. [ ]: non-standard residue; d: D form. Phe(4-Cl) = N[CH](Cc1ccc(Cl)cc1)C(=O)O
Key:
Test in all cases: growth of human tumour cells (NCI), 48 h
SNB-78 CNS = test system: SNB-78 CNS
XF 498 CNS = test system: XF 498 CNS
KM20L2 colon = test system: KM20L2 colon
M19-MEL melanoma = test system: M19-MEL melanoma
LXFL 529 NSCLC = test system: LXFL 529 NSCLC
DMS 114 small cell lung = test system: DMS 114 small cell lung
RXF-631 renal = test system: RXF-631 renal
HOP-18 NSCLC = test system: HOP-18 NSCLC
MDA-N = test system: MDA-N

Compound | TGI (SNB-78 CNS) | TGI (XF 498 CNS) | TGI (KM20L2 colon) | TGI (M19-MEL melanoma) | TGI (LXFL 529 NSCLC) | TGI (DMS 114 small cell lung) | TGI (RXF-631 renal) | TGI (HOP-18 NSCLC) | other results
CN(C)P(=O)(/C(N)=N/Nc1ccc([N+](=O)[O-])cc1)N(C)C | > 100 µM | > 100 µM | > 100 µM | > 100 µM | > 100 µM | > 100 µM |  |  | 
CC(O)C(NC(=O)C(Cc1ccccc1)NC(=O)C(NC(=O)C(CCCCN)NC(=O)C(Cc1c[nH]c2ccccc12)NC(=O)C(Cc1ccc(O)cc1)NC(=O)C(Cc1ccc(Cl)cc1)NC(=O)C(N)Cc1ccccc1)C(C)O)C(N)=O (stereo unspecified) (H-F[Phe(4-Cl)]YWKTFT-NH2; configuration not given here) | 61 µM | 28.9 µM | 48.7 µM | 40.2 µM | 39.4 µM | 37.8 µM | 42.4 µM |  | 
CC(C)N(C(=O)C12CC3CC(CC(C3)C1)C2)C(C)C | > 50 µM |  | > 50 µM | > 50 µM | > 50 µM | > 50 µM |  | > 50 µM | 
CC(C)=CCC/C(=C/CC/C(C)=C/CCc1ccoc1)C(=O)O | > 100 µM | > 100 µM | > 100 µM | > 100 µM | > 100 µM | > 100 µM |  |  | 
CN(C)CCNC(=O)c1cccc(C(=O)Nc2ccccc2)c1[N+](=O)[O-] |  |  |  |  |  |  |  |  | TGI (MDA-N): > 100 µM
CCC1(O)C(=O)OCc2c1cc1n(c2=O)Cc2cc3ccc(C=O)cc3nc2-1 (stereo unspecified) | 98.2 µM | 19.2 µM | > 50.3 µM | 19.8 µM | > 100 µM | 20.5 µM | 31.7 µM | > 100 µM | GI50 (MDA-N): 3.9 µM; TGI (MDA-N): 23.7 µM and 36.4 µM
Cc1ccccc1N(CCC#N)C1=NN(C(=O)CC(=O)Nc2ccccc2)C(c2ccccc2)C1 (stereo unspecified) | > 100 µM |  | > 100 µM | > 100 µM | > 100 µM |  | > 100 µM | > 100 µM | 
COC(=O)C1=NC(=S)NC(c2ccccc2)C1c1nc2ccccc2s1 (stereo unspecified) | > 100 µM |  | > 100 µM | > 100 µM | > 100 µM | > 100 µM | > 100 µM | > 100 µM | 
CCCCCCCCCCCCCC1CCC(CC)N1 (stereo unspecified) | 30.4 µM |  | 26.2 µM | 10.6 µM | 32.6 µM | 17.4 µM |  | 30.9 µM | 
COc1ccc(-c2cn3ccsc3n2)cc1 | > 100 µM |  | > 100 µM | > 100 µM | > 100 µM | > 100 µM |  | > 100 µM | 
N.N.N.N.N.O=C([O-])c1nn[n-]n1.[Cl-].[Co+3] | > 100 µM |  | > 100 µM |  | > 100 µM |  |  | > 100 µM | GI50 (SNB-78 CNS): > 100 µM; GI50 (HOP-18 NSCLC): > 100 µM; GI50 (KM20L2 colon): > 100 µM; GI50 (LXFL 529 NSCLC): > 100 µM
COc1ccc2c(c1)C=C([N+](=O)[O-])C(C1OC(C)(C)OC1C1COC(C)(C)O1)O2 (stereo unspecified) | 11.8 µM | 22.9 µM | 17.3 µM | 3.31 µM | 13.8 µM | 8.55 µM |  | 42 µM | 
CCOC(=O)NC(=O)c1cn(CCOCCOC(=O)NCCCCCCNC(=O)OCCOCCn2cc(C(=O)NC(=O)OCC)c(=O)[nH]c2=O)c(=O)[nH]c1=O | > 100 µM |  | > 100 µM | > 100 µM | > 100 µM | > 100 µM | > 100 µM | > 100 µM | 
CN/N=C(/CCN1CCCC1)CC(c1ccccc1)c1c(O)c2ccccc2oc1=O (stereo unspecified) | > 100 µM | > 100 µM | > 100 µM | > 100 µM | > 100 µM | > 100 µM | > 100 µM | > 100 µM | TGI (MDA-N): > 100 µM
COc1cc2oc(-c3ccc(O)cc3)cc(=O)c2c(OC)c1OC |  |  |  |  |  |  |  |  | TGI (MDA-N): > 100 µM
COC(=O)C(=O)C(C(=O)C(=O)Nc1ccccc1C(N)=O)c1nc2ccc(Cl)cc2[nH]c1=O (stereo unspecified) |  |  |  |  |  |  |  |  | TGI (MDA-N): > 100 µM
CCOC1=NC(=O)CC(c2ccccc2)S1 (stereo unspecified) | > 100 µM | > 100 µM | > 100 µM | > 100 µM | > 100 µM |  |  |  | 
CC1=C(C)CC2(CCCCC2=O)S(=O)C1 (stereo unspecified) | > 100 µM | > 100 µM | > 100 µM | > 100 µM | > 100 µM | > 100 µM |  | > 100 µM | 
Cn1cc(C(=O)c2ccccc2)ccc1=O | > 100 µM | > 100 µM | > 100 µM | > 100 µM | > 100 µM | > 100 µM |  |  | 
Cc1ccc(Nc2nc3c(s2)C(=O)c2ccccc2C3=O)c(C)c1 | 43.6 µM | 36.2 µM | > 100 µM | 5.71 µM | 28.7 µM | 24.1 µM |  | 20.1 µM | 
CN(C)CC/C(=N\Nc1c(Cl)cccc1Cl)c1ccccc1 | 62.1 µM |  | 33.1 µM | 33.6 µM | 29.5 µM | 34 µM |  | 51.1 µM | 

Compound | TGI (SNB-78 CNS) | TGI (XF 498 CNS) | TGI (KM20L2 colon) | TGI (M19-MEL melanoma) | TGI (LXFL 529 NSCLC) | TGI (DMS 114 small cell lung) | TGI (RXF-631 renal) | TGI (HOP-18 NSCLC) | other results
Cc1ccc(N(C(=O)CC(=O)NN)C(=O)c2ccccc2Cl)cc1 | > 100 µM | > 100 µM | > 100 µM | > 100 µM | > 100 µM | > 100 µM | > 100 µM | > 100 µM | 
CC(=O)[CH-]C(=O)c1ccccc1.CC(=O)[CH-]C(=O)c1ccccc1.O=C([O-])c1ccc([O-])cc1.O=C([O-])c1ccc([O-])cc1.[Ti+4] |  |  | > 100 µM |  | > 100 µM |  |  | > 100 µM | GI50 (HOP-18 NSCLC): 68.8 µM; GI50 (KM20L2 colon): 51.1 µM; GI50 (LXFL 529 NSCLC): 31.1 µM
CCC[CH2][Sn]1([CH2]CCC)[O]C(=O)C(C(C)C)N=Cc2ccccc2[O]1 (stereo unspecified) | 1.23 µM | > 100 µM | 2.22 µM | 1.08 µM | 0.2 µM | 0.229 µM | 0.308 µM | 1.92 µM | GI50 (SNB-78 CNS): 0.227 µM; GI50 (RXF-631 renal): 0.166 µM; GI50 (XF 498 CNS): > 100 µM; GI50 (HOP-18 NSCLC): 0.668 µM; GI50 (KM20L2 colon): 1.04 µM; GI50 (M19-MEL melanoma): 0.232 µM; GI50 (LXFL 529 NSCLC): 0.0617 µM; GI50 (DMS 114 small cell lung): 0.0918 µM
COc1c2c(cc3nc4ccccc4nc13)CCC(C(C)(C)O)C2 (stereo unspecified) | > 100 µM | > 100 µM | > 100 µM | > 100 µM | > 100 µM |  |  | > 100 µM | 
Cc1cccc(NC(=O)C(=O)Cc2nc3ccccc3[nH]c2=O)c1C | > 100 µM | > 100 µM | > 100 µM | > 100 µM | > 100 µM | > 100 µM |  | > 100 µM | 
c1ccc(C2=NNC3c4ccccc4-c4ccccc4N3C2)cc1 (stereo unspecified) |  |  |  |  |  |  |  |  | TGI (MDA-N): > 100 µM
CC(=O)OC1CC(O)C23COC(O)C1(C)C2CC(O)C1(C)C3C(=O)C(O)C2(C)C(c3ccoc3)CC3OC321 (stereo unspecified) |  |  |  |  |  |  |  |  | GI50 (MDA-N): 0.0178 µM; TGI (MDA-N): > 100 µM
COC(=O)c1cccc2cccc(C(=O)Nc3ccc(C)cc3C)c12 | > 100 µM | > 100 µM | > 100 µM | > 100 µM | > 100 µM | > 100 µM | > 100 µM | > 100 µM | 
NC(CC(=O)OCc1ccccc1)C(=O)OCc1ccccc1 (stereo unspecified) |  |  |  |  |  |  |  |  | TGI (MDA-N): > 100 µM
CCOC(=O)CN=c1nc(SC)sc2c(C(=O)OCC)nc(Sc3ccccc3)n12 |  | > 100 µM | > 100 µM | > 100 µM | > 100 µM | > 100 µM | > 100 µM | > 100 µM | 
C=CCCCCCCCCC(=O)NS(=O)(=O)c1ccccc1 | > 100 µM | > 100 µM | > 100 µM | > 100 µM | > 100 µM | > 100 µM | > 100 µM | > 100 µM | 
O=C(O)CP(=S)(S)c1ccccc1 (stereo unspecified) | > 100 µM | > 100 µM |  | > 100 µM | > 100 µM | > 100 µM |  |  | 
Cc1noc(C)c1CCCOC1COc2ccccc2OCCOCCOc2ccccc2OC1 | > 100 µM | > 100 µM | > 100 µM | > 100 µM | > 100 µM | > 100 µM |  | > 100 µM | 
CC12CCCC(O)C1CCC1=CC3(CCC12)SCCS3 (stereo unspecified) |  |  |  |  |  |  |  |  | TGI (MDA-N): > 10 µM
CC[O-].CC[O-].O=C1c2ccccc2C(=O)c2c(O)ccc([O-])c21.O=C1c2ccccc2C(=O)c2c(O)ccc([O-])c21.[Ti+4] | > 100 µM |  | > 100 µM | 73.4 µM | > 100 µM | > 100 µM |  | > 100 µM | GI50 (HOP-18 NSCLC): 74.4 µM; GI50 (KM20L2 colon): > 100 µM
COc1ccc(C(C)c2cc3c(cc2OC)OCO3)cc1 (stereo unspecified) | > 31.6 µM |  | 0.533 µM | > 100 µM | > 42.7 µM | 2.77 µM |  | > 100 µM | 
O=c1cccccc1NCCCNc1cccccc1=O | > 100 µM | > 100 µM | > 100 µM | > 100 µM | > 100 µM | > 100 µM | > 100 µM |  | 
NC1=NN(c2ccccc2)C(=O)C1C(=O)CCC(=O)Nc1cccc(C(F)(F)F)c1 (stereo unspecified) | > 100 µM |  | > 100 µM | > 100 µM | > 100 µM | > 100 µM | > 100 µM | > 100 µM | 
COC(=O)c1cc(Br)c(Br)n1C | > 100 µM | > 100 µM | > 100 µM | > 100 µM | > 100 µM | > 100 µM | > 100 µM | > 100 µM | 
O=C1c2ccccc2-c2c1c1ccccc1c(=O)n2Cc1ccccc1 |  |  |  |  |  |  |  |  | TGI (MDA-N): > 100 µM
CCc1[nH]c(=O)nc(N)c1-c1ccc(N2CCCCC2)c([N+](=O)[O-])c1 |  |  |  |  |  |  |  |  | TGI (MDA-N): > 100 µM

Reference: PubChem BioAssay (NCI)
